# Experimental data published in patent publication US12497349B2, “Salts of tranexamic acid esters” (Actera Ingredients, Inc., priority 2019, dated 2025).
# Assay: Viscosity by vertical falling sphere method
# Format: physicochemical
# Settings: room temperature 25±1° C.; 1.0 and 5.0 wt. % in water; compared to the tranexamate hydrochloride salt; FIG. 2
# Procedure: Compositions of tranexamate ester salts with differing counter-ions as shown in Table 5 were prepared as follows. 1) Ingredients A to C were combined based on the weight ratios in Table 5. 2) The mixture was heated with stirring to 80±5° C. until all solids were dissolved. 3) The homogeneous mixture was removed from the heat and allowed to cool to room temperature (25±5° C.).
# The viscosity at room temperature (25±1° C.) of Examples 13-16 was determined by the method of the vertical falling sphere using the equation μ=[2 (ρs−ρl) g a^2 ]/9v, where μ=dynamic viscosity, ρs=density of the sphere, ρl=density of the test material (Examples 13-16), g=standard gravity, a=radius of the sphere, and v=velocity of the sphere.
# Results are represented in FIG. 2. […] Additionally, the tranexamate sulfonate salt yielded stable and homogeneous compositions not observed with the tranexamate hydrochloride salt (see Examples 1 to 12).
compound,measurement,value
"CCCCCCCCCCCCCCCCOC(=O)C1CCC(CN)CC1.CS(=O)(=O)O (stereo not shown) [tranexamate sulfonate salt, Cetyl tranexamate mesylate]",Viscosity,higher viscosity with increasing concentration
